# Experiments:
# [1] = Inhibition of HCV 1a NS5B polymerase; parameters: species or system Hepatitis C virus subtype 1a
# Hepatitis C virus [2] = experiment: Inhibition of HCV 1b NS5B polymerase; parameters: species or system Hepatitis C virus subtype 1b
# Hepatitis C virus [3] = experiment: Antiviral activity against HCV 1b in presence of 5% fetal calf serum by replicon based assay; format: functional, organism-based, Hepacivirus hominis; conditions: genotype 1b
# [4] = Drug level in rat plasma at 5 mg/kg, po after 6 hrs; format: ADME, organism-based; parameters: dose 5 mg/kg, route oral; conditions: read-out: Activity
# [5] = Cmax in rat plasma at 5 mg/kg, po; format: ADME, organism-based; parameters: dose 5 mg/kg, route oral
# [6] = Drug level in rat liver at 5 mg/kg, po after 24 hrs; format: ADME, organism-based; parameters: dose 5 mg/kg, route oral; conditions: read-out: Activity
# [7] = Half life in rat at 5 mg/kg, iv; format: ADME, organism-based; parameters: dose 5 mg/kg, route intravenous; conditions: in vivo
# [8] = Drug level in rat liver at 5 mg/kg, po after 12 hrs; format: ADME, organism-based; parameters: dose 5 mg/kg, route oral; conditions: read-out: Activity
# [9] = Drug level in rat liver at 5 mg/kg, po after 6 hrs; format: ADME, organism-based; parameters: dose 5 mg/kg, route oral; conditions: read-out: Activity
# [10] = Drug level in rat plasma at 5 mg/kg, po after 12 hrs; format: ADME, organism-based; parameters: dose 5 mg/kg, route oral; conditions: read-out: Activity
# [11] = Drug level in rat plasma at 5 mg/kg, po after 1 hr; format: ADME, organism-based; parameters: dose 5 mg/kg, route oral; conditions: read-out: Activity
# [12] = Ratio of drug level in liver to plasma in rat at 5 mg/kg, po after 6 hrs; format: ADME, organism-based; parameters: dose 5 mg/kg, route oral; conditions: other tissue
# [13] = Tmax in rat at 5 mg/kg, po; format: ADME, organism-based; parameters: dose 5 mg/kg, route oral; conditions: in vivo
# Hepatitis C virus [14] = experiment: Antiviral activity against HCV 1a in presence of 5% fetal calf serum by replicon based assay; format: functional, organism-based, Hepacivirus hominis; conditions: subtype 1a
# [15] = Ratio of drug level in liver to plasma in rat at 5 mg/kg, po after 12 hrs; format: ADME, organism-based; parameters: dose 5 mg/kg, route oral; conditions: other tissue
# [16] = Volume of distribution at steady state in rat at 5 mg/kg, iv; format: ADME, organism-based; parameters: dose 5 mg/kg, route intravenous; conditions: in vivo, read-out: Vdss
# [17] = Ratio of drug level in liver to plasma in rat at 5 mg/kg, po after 1 hr; format: ADME, organism-based; parameters: dose 5 mg/kg, route oral; conditions: other tissue
# [18] = Drug level in rat liver at 5 mg/kg, po after 1 hr; format: ADME, organism-based; parameters: dose 5 mg/kg, route oral; conditions: read-out: Activity
# [19] = AUC (0 to infinity) in rat at 5 mg/kg, po; format: ADME, organism-based; parameters: time infinity, dose 5 mg/kg, route oral; conditions: plasma
# [20] = Volume of distribution at terminal phase in rat at 5 mg/kg, iv; format: ADME, organism-based; parameters: dose 5 mg/kg, route intravenous; conditions: in vivo, read-out: Vbeta
# [21] = Plasma clearance in rat at 5 mg/kg, iv; format: ADME, organism-based; parameters: dose 5 mg/kg, route intravenous
# [22] = Oral bioavailability in rat at 5 mg/kg; format: ADME, organism-based; conditions: in vivo
# [23] = AUC (0 to infinity) in rat at 5 mg/kg, iv; format: ADME, organism-based; parameters: time infinity, dose 5 mg/kg, route intravenous; conditions: plasma
# [24] = Half life in rat at 5 mg/kg, po; format: ADME, organism-based; parameters: dose 5 mg/kg, route oral; conditions: in vivo
structure (smiles),measurement,setting,value
CCCC1(CCC)C(=O)C(C2=NS(=O)(=O)c3ccccc3N2)=C(O)c2ccccc21,IC50,[1],2200 nM
O=c1c(C2=NS(=O)(=O)c3ccccc3N2)c(O)c2ccccc2n1NC1CCC1,IC50,Hepatitis C virus [2],480 nM
same,IC50,[1],280 nM
same,EC50,Hepatitis C virus [3],100 nM
CC(C)CCC1(CCC(C)C)C(=O)C(C2=NS(=O)(=O)c3ccccc3N2)=C(O)c2ccccc21,IC50,[1],820 nM
CCCC1(CCC)C(=O)C(C2=NS(=O)(=O)c3cc(NS(C)(=O)=O)ccc3N2)=C(O)c2ccccc21,IC50,Hepatitis C virus [2],130 nM
same,IC50,[1],99 nM
same,EC50,Hepatitis C virus [3],22 nM
CC1(C)C(=O)C(C2=NS(=O)(=O)c3cc(NS(C)(=O)=O)ccc3N2)=C(O)c2ccccc21,IC50,Hepatitis C virus [2],6260 nM
same,IC50,[1],930 nM
CC(C)CCn1c(=O)c(C2=NS(=O)(=O)c3ccccc3N2)c(O)c2ccccc21,IC50,[1],540 nM
same,EC50,Hepatitis C virus [3],250 nM
CCCCC1(CCCC)C(=O)C(C2=NS(=O)(=O)c3cc(NS(C)(=O)=O)ccc3N2)=C(O)c2ccccc21,concentration at 6 h,[4],410 ng/mL
same,Cmax,[5],580 ng/mL
same,IC50,Hepatitis C virus [2],73 nM
same,concentration at 24 h,[6],150 ng/g
same,half-life,[7],258 min
same,IC50,[1],10 nM
same,concentration at 12 h,[8],4600 ng/g
same,concentration at 6 h,[9],20800 ng/g
same,concentration at 12 h,[10],250 ng/mL
same,EC50,Hepatitis C virus [3],48 nM
same,concentration at 1 h,[11],450 ng/mL
same,Ratio,[12],48.2 mL/g
same,Tmax,[13],3 h
same,EC50,Hepatitis C virus [14],0.28 µM
same,Ratio,[15],17.3 mL/g
same,Vd,[16],1.87 L/kg
same,Ratio,[17],34.3 mL/g
same,concentration at 1 h,[18],14200 ng/g
same,AUC(0-inf),[19],6400 ng·h/mL
same,Vd,[20],6.11 L/kg
same,clearance,[21],11.7 mL/min/kg
same,bioavailability,[22],94.3%
same,AUC(0-inf),[23],7300 ng·h/mL
same,half-life,[24],258 min
CCCCC1(CCCC)C(=O)C(C2=NS(=O)(=O)c3ccccc3N2)=C(O)c2ccccc21,IC50,Hepatitis C virus [2],2270 nM
same,IC50,[1],990 nM
CC(C)CCC1(CCC(C)C)C(=O)C(C2=NS(=O)(=O)c3cc(NS(C)(=O)=O)ccc3N2)=C(O)c2ccccc21,IC50,Hepatitis C virus [2],390 nM
same,IC50,[1],68 nM
CC(C)CCC1(CCC(C)C)C(=O)C(C2=NS(=O)(=O)c3cc(OCC(N)=O)ccc3N2)=C(O)c2ccccc21,IC50,[1],320 nM
same,EC50,Hepatitis C virus [3],> 3000 nM
same,EC50,Hepatitis C virus [14],10.1 µM
CCCCC1(CCCC)C(=O)C(C2=NS(=O)(=O)c3cc(OCC(N)=O)ccc3N2)=C(O)c2ccccc21,IC50,Hepatitis C virus [2],330 nM
same,IC50,[1],260 nM
same,EC50,Hepatitis C virus [3],290 nM
same,EC50,Hepatitis C virus [14],9.64 µM
CCCC1(CCC)C(=O)C(C2=NS(=O)(=O)c3cc(OCC(N)=O)ccc3N2)=C(O)c2ccccc21,IC50,[1],240 nM
same,EC50,Hepatitis C virus [3],810 nM
same,EC50,Hepatitis C virus [14],> 10 µM
CC1(C)C(=O)C(C2=NS(=O)(=O)c3ccccc3N2)=C(O)c2ccccc21,IC50,Hepatitis C virus [2],6260 nM
same,IC50,[1],2200 nM
